Reference: patent US9115093B2, “Substituted bicyclic dihydropyrimidinones and their use as inhibitors of neutrophil elastase activity” (Boehringer Ingelheim International GmbH, priority 2013, dated 2015)
Values after ≈ are worked out from the molar mass of the structure shown.

Assays:
[1] = Metabolic stability with human liver microsomes; type: in vitro ADME; conditions: pooled human liver microsomes, 37° C., 1 mg/ml protein, NADPH; for half-life at 1 nM: pH 7.6, read-out: t1/2 INVITRO
Method: Assay for the Determination of Metabolic Stability with Human Liver Microsomes
The metabolic degradation of the test compound is assayed at 37° C. with pooled human liver microsomes. The final incubation volume of […] per time point contains TRIS buffer pH 7.6 (0.1 M), magnesium chloride (5 mM), microsomal protein (1 mg/ml) and the test compound at a final concentration of […]. Following a short preincubation period at 37° C., the reactions are initiated by addition of beta-nicotinamide adenine dinucleotide phosphate, reduced form (NADPH, 1 mM) and terminated by transfering an aliquot into acetonitrile after different time points. Additionally, the NADPH-independent degradation is monitored in incubations without NADPH, terminated at the last time point. The rol remaining test compound after NADPH independent incubation is reflected by the parameter c(control) (metabolic stability). The quenched incubations are pelleted by centrifugation (10′000 g, 5 min) An aliquot of the supernatant is assayed by LC-MS/MS for the amount of parent compound.
The half-life (t1/2 INVITRO) is determined by the slope of the semilogarithmic plot of the concentration-time profile. The intrinsic clearance (CL_[…]) is calculated by considering the amount of protein in the incubation: CL_[…][μl/min/mg protein]=(ln 2/(half-life [min]*protein content [mg/ml]))*1′000.
The half-life (t1/2 INVITRO) values of selected compounds in the metabolic stability assay described above are listed in Table 15.

[2] = Aqueous solubility; type: physicochemical; conditions: McIlvaine buffer pH 6.8, 2.5% DMSO, 24 h shaking; for solubility at 24 h: McIlvaine buffer with 2.5% DMSO
Method: Assay for Determination of Aqueous Solubility
The aqueous solubility of a compound is determined by comparing the amount dissolved in aqueous buffer (containing 2.5% DMSO) to the amount dissolved in an acetonitrile/water (1/1) solution. Starting from a 10 mM DMSO stock solution, aliquots are diluted with acetonitrile/water (1/1) and Mcllvaine buffer pH 6.8, respectively. After 24 h of shaking, the solutions or suspensions are filtered and analyzed by LC-UV. The amount dissolved in buffer is compared to the amount dissolved in the acetonitrile/water (1/1) solution. Solubility is measured from 0.001 to 0.125 mg/ml at a DMSO concentration of 2.5%. If more than 90% of the compound is dissolved in buffer, the value is marked with “>”.

[3] = molecular target: T1, neutrophil elastase (Homo sapiens, UniProt P08246); test: Human Neutrophil Elastase Assay; type: biochemical; design: purchased Calbiochem 324681; conditions: substrate MeOSuc-Ala-Ala-Pro-Val-AMC, pH 7.5, room temperature
T1 sequence (P08246 30-247 limits assumed): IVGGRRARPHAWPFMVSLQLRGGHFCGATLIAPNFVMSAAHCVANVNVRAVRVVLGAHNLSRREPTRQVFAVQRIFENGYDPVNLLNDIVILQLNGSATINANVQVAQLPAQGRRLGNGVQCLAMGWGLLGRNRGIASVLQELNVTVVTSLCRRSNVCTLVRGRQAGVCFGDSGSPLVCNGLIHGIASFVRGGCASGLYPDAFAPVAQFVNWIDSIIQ
Outline: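 Readout: AMC fluorescence (ex 380, em 460 nm) after 60 min room-temperature reaction with 250 nM MeOSuc-AAPV-AMC, following 15 min compound–enzyme preincubation. Buffer: Tris/NaCl pH 7.5, 0.01% BSA.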

[4] = molecular target: T1, neutrophil elastase; test: Neutrophil elastase inhibitory activity in human plasma; type: biochemical; design: The stimulated blood is centrifuged to generate the neutrophil elastase enriched plasma; from tissue; host or cells: plasma from zymosan-stimulated citrated whole blood of healthy human donors; conditions: neutrophil elastase enriched human plasma (zymosan-stimulated blood), substrate MeOSuc-Ala-Ala-Pro-Val-AMC
Method: Assay for the Determination of Neutrophil Elastase Inhibitory Activity in Human Plasma
Citrated blood from human healthy donors is mixed with zymosan suspension and incubated at room temperature. This leads to the stimulation of neutrophils and the release of neutrophil elastase into the plasma. The stimulated blood is centrifuged to generate the neutrophil elastase enriched plasma.
Preparation of Zymosan Working Solution:
• single 45 ml blood sample is taken into a 50 ml tube containing citrate (3.13%, 5 mL) and the tube is gently inverted 4 times. • Immediately after blood sampling, zymosan working solution (5 mL) is added. • After the addition of zymosan working solution, the tubes are capped, mixed gently and incubated at 22° C. for 15 min on a shaker at 20 rpm. • Make 10 ml aliquots after the incubation time. • Centrifuge the 15 ml tubes at 800 g for […] at 4° C. in a Jouan centrifuge. • Harvest the plasma and make 1-5 ml aliquots. • Store the plasma at −80° C.
Various concentrations of the neutrophil elastase inhibitor are incubated with plasma. Subsequently, the enzyme activity is measured using the fluorogenic substrate MeOSuc-Ala-Ala-Pro-Val-AMC (Bachem Cat. No. 1-1270, substrate concentration: 250 μM, pH 7.5, 25 mM TRIS buffer, 250 mM NaCl) in analogous fashion as described for the human neutrophil assay. A dose response curve is generated to calculate the EC50 of the inhibitor. The analysis of the data is performed by the calculation of the percentage of fluorescence in the presence of the test compound compared to the fluorescence of the vehicle control after subtracting the background fluorescence: An inhibitor of the neutrophil elastase enzyme will give values between 100% control (no inhibition) and 0% control (complete inhibition). The human plasma shift of selected compounds can be calculated using the following equation: Human plasma shift=(EC50 in human plasma assay)/(IC50 in human neutrophil elastase assay) The EC50 values of selected compounds in the human plasma assay described above are listed in Table 14.

Row | half-life at 1 nM [1] [h] | solubility at 24 h [2] [µg/mL] | Structure (SMILES) | t1/2 INVITRO [1] [h] | Aqueous solubility [2] [µg/mL] | IC50 [3] [nM] | EC50 [4] [nM]
1 |  |  | CS(=O)(=O)c1cc(C#N)ccc1[C@@H]1C2=C(CCCC2=O)N(c2cccc(C(F)(F)F)c2)C(=O)N1C(=O)NCC(F)F [Example 75.7] | >2.17 | 5 | < 1 | 1
2 |  |  | CC(C)NC(=O)N1C(=O)N(c2cccc(C(F)(F)F)c2)C2=C(C(=O)CCC2)[C@H]1c1ccc(C#N)cc1S(C)(=O)=O [Example 75.3] | >2.17 | 9 | < 1 | 1
3 | > 2.17 | 6 (≈ 12 µM) | N#Cc1ccc(C2C3=C(CCCC3=O)N(c3cccc(C(F)(F)F)c3)C(=O)N2C(=O)NCCO)cc1 (stereo not shown) [Example 39.3] |  |  | < 1 | 6
4 | > 2.17 | 9 (≈ 16.1 µM) | CS(=O)(=O)CCNC(=O)N1C(=O)N(c2cccc(C(F)(F)F)c2)C2=C(C(=O)CCC2)C1c1ccc(C#N)cc1 (stereo not shown) [Example 39.19] |  |  | < 1 | 9
